Values joined by “and” are separate entries in the source; they are usually repeats but may differ in a detail not shown here. Equal entries are not always repeated.
What was measured:
[1] = molar heat capacity at constant pressure; details: 101.33 kPa, Liquid, Small sample (50 mg) DSC
[2] = Closed cell (Static) method

O=S1(=O)CCCC1 [sulfolane]
[1]
Details	molar heat capacity at constant pressure
304.04 K	179.5 J/K/mol and 179.9 J/K/mol
309.14 K	181.3 J/K/mol
309.15 K	181.6 J/K/mol
314.25 K	182.6 J/K/mol and 183.8 J/K/mol
319.35 K	184.7 J/K/mol and 184.5 J/K/mol
324.46 K	185.3 J/K/mol and 184.4 J/K/mol
329.56 K	187.4 J/K/mol and 186.6 J/K/mol
334.66 K	188.7 J/K/mol
334.67 K	187.9 J/K/mol
339.77 K	189.7 J/K/mol and 188.5 J/K/mol
344.88 K	190.2 J/K/mol
349.98 K	192.5 J/K/mol and 192 J/K/mol
355.09 K	193.4 J/K/mol and 192.3 J/K/mol

[2], Liquid
Details	vapor or sublimation pressure
302.16 K	0.00146 kPa
303.17 K	0.00155 kPa and 0.00158 kPa
305.17 K	0.00188 kPa and 0.00187 kPa
306.17 K	0.00203 kPa
307.17 K	0.00223 kPa and 0.00224 kPa and 0.0022 kPa
308.17 K	0.00241 kPa and 0.0024 kPa

C[S+](C)[O-] [dimethyl sulfoxide]
[2]
Details	vapor or sublimation pressure
273.65 K, Crystal	0.00789 kPa
275.65 K, Crystal	0.00979 kPa
278.15 K, Crystal	0.01278 kPa and 0.01277 kPa and 0.01275 kPa
280.64 K, Crystal	0.01655 kPa
280.65 K, Crystal	0.01656 kPa
283.15 K, Crystal	0.02138 kPa and 0.02137 kPa
285.65 K, Crystal	0.02752 kPa and 0.02751 kPa
288.15 K, Crystal	0.03531 kPa and 0.03525 kPa
290.65 K, Crystal	0.04487 kPa and 0.04486 kPa
293.15 K, Liquid	0.05512 kPa and 0.05509 kPa and 0.0551 kPa
295.65 K, Liquid	0.06631 kPa and 0.06632 kPa and 0.06633 kPa
298.15 K, Liquid	0.07965 kPa and 0.07966 kPa and 0.07964 kPa
300.65 K, Liquid	0.09517 kPa and 0.09518 kPa
303.16 K, Liquid	0.1134 kPa
305.66 K, Liquid	0.1346 kPa
308.16 K, Liquid	0.1592 kPa

Reference: the NIST ThermoML archive (doi:10.1016/j.fluid.2011.02.002)
